Test results: patent US20090076029A1 (Palatin Technologies, Inc., priority 2007, published 2009)
pEC50: −log10 of the molar value. Like-named read-outs stand apart in the source and are kept apart here.

How the values were obtained:
MC1-R [1] = biological target: T1, MC1-R; experiment: Competitive inhibition assay using [I125]-NDP-α-MSH, MC1-R membranes; format: binding, mouse; conditions: for Inhibition at 1 μM (NDP-α-MSH) MC1-R: 1 μM compound
T1 construct: other: 1 μM compound
Method: (§1) Competitive inhibition assay using [1125]-NDP-α-MSH. A competitive inhibition binding assay was conducted using membranes prepared from HEK-293 cells transfected to express hMC3-R, hMC4-R or hMC5-R, and from B-16 mouse melanoma cells (containing MC1-R) using 0.2 to 0.4 nM [I^125]-NDP-α-MSH (New England Nuclear) in 50 mM HEPES buffer containing 1 mM MgCl2, 2 mM CaCl2, and 5 mM KCl, at pH 7.2. In certain experiments, HEK-293 cells transfected to express hMC1-R were also employed. The assay tube also contained a chosen concentration of the test compound of this invention, typically a 1 μM concentration, for determining inhibition of the binding of [^1125]-NDP-α-MSH to its receptor. Non-specific binding was measured by inhibition of binding of [I^125]-NDP-α-MSH in the assay with the presence of 1 μM α-MSH.
(§2) The assay mixture was incubated for 90 minutes at room temperature, then filtered and the membranes washed three times with ice cold buffer. The filter was dried and counted in a gamma counter for remaining radioactivity bound to the membranes. 100% specific binding was defined as the difference in radioactivity (cpm) bound to cell membranes in the absence and presence of 1 μM α-MSH. The cpm obtained in presence of test compounds were normalized with respect to 100% specific binding to determine the percent inhibition of [125]-NDP-α-MSH binding. Each assay was conducted in triplicate and the actual mean values are described, with results less than 0% reported as 0%.

hMC3-R = biological target: T2, hMC3-R; experiment: Competitive inhibition assay using [I125]-NDP-α-MSH, hMC3-R membranes; format: binding, human; conditions: for Ki: read-out: Ki (nM) (NDP-α-MSH) MC3-R
T2 construct: expressed in transfected cells; host or cells: HEK-293
Method: as §1, §2

hMC4-R [2] = system: T3, hMC4-R; experiment: Competitive inhibition assay using [I125]-NDP-α-MSH, hMC4-R membranes; format: binding, human; conditions: for Inhibition at 1 μM (NDP-α-MSH) MC4-R: 1 μM compound
T3 construct: expressed in transfected cells; host or cells: HEK-293
Method: as §1, §2

hMC5-R [3] = biological target: T4, hMC5-R; experiment: Competitive inhibition assay using [I125]-NDP-α-MSH, hMC5-R membranes; format: binding, human; conditions: for Ki: read-out: Ki (nM) (NDP-α-MSH) MC5-R
T4 construct: expressed in transfected cells; host or cells: HEK-293
Method: as §1, §2

hMC4-R [4] = biological target: T3, hMC4-R; format: binding, human
Method: Competitive binding assay using [I^125]-AgRP (83-132). Competitive binding studies using [I^125]-AgRP (83-132) were carried out on membranes isolated from cells expressing hMC4-R. The assay was performed in 96 well GF/B Millipore multiscreen filtration plates (MAFB NOB10) pre-coated with 0.5% bovine serum albumin (Fraction V). The assay mixture contained 25 mM HEPES buffer (pH 7.5) with 100 mM NaCl, 2 mM CaCl2, 2 mM MgCl2, 0.3 mM 1,10-phenanthroline, 0.5% bovine serum albumin, cell membranes, radioligand [I^125]-AgRP (83-132) (NEN), and increasing concentrations of compounds in a total volume of 200 μL. Binding was measured at radioligand concentrations of 0.2 nM. After incubating for 1 hour at 37° C., the reaction mixture was filtered and washed with an assay buffer containing 500 mM NaCl. The dried discs were punched out from the plate and counted on a gamma counter. Care was taken to limit the specific binding of the ligand to an amount not exceeding 10% of the counts added to the reaction mixture. Data were analyzed using the Prism Graph-Pad curve fitting software.

hMC4-R [5] = system: T3, hMC4-R; experiment: cAMP functional assay in HEK-293 cells expressing MC4-R (agonist, neutral antagonist/Schild); format: cell-based, human; conditions: for intrinsic activity at MC4-R: NDP-α-MSH maximal stimulation = 1.0
Method: (§3) General method for EC50 determination in functional activity assay. Functional evaluation of compounds at melanocortin receptors was performed by measuring the accumulation of intracellular cAMP in HEK-293 cells expressing hMC3-R, hMC4-R or hMC5-R, and in B-16 mouse melanoma cells expressing MC1-R. Cells suspended in Earle's Balanced Salt Solution containing 10 mM HEPES (pH 7.5), 5 mM MgCl2, 1 mM glutamine, 0.1% albumin and 0.6 mM 3-isobutyl-1-methyl-xanthine, a phosphodiesterase inhibitor, were plated in 96 well plates at a density of 0.5×10^5 cells per well. Cells were incubated with the test compounds in the presence or absence of α-MSH for 1 hour at 37° C. cAMP levels in the cell lysates were measured using an EIA kit (Amersham). Data analysis and EC50 values were determined using nonlinear regression analysis with Prism Graph-Pad software.
(§4) Functional status. The agonist/antagonist status with respect to MC1-R, MC-3R, MC4-R and MC5-R of certain compounds of the invention was determined.
Assay for agonist. Evaluation of the molecules to elicit a functional response in HEK-293 cells expressing MC4-R was accomplished by measuring the accumulation of intracellular cAMP following treatment. Confluent HEK-293 cells expressing MC4-R were detached by enzyme free cell suspension buffer. Cells were suspended in Earle's Balanced Salt Solution containing 10 mM HEPES (pH 7.5), 1 mM MgCl2, 1 mM glutamine, 0.5% albumin and 0.3 mM 3-isobutyl-1-methyl-xanthine (IBMX), a phosphodiesterase inhibitor. The cells were plated in 96 well plates at a density of 0.5×10^5 cells per well and pre-incubated for 30 minutes. The cells were then challenged with the test compounds dissolved in DMSO at a concentration range of 0.05-5000 nM in a total assay volume of 200 μL for 1 hour at 37° C. The concentration of DMSO was always held at 1% in the assay mixture. NDP-α-MSH was used as the reference agonist. At the end of the incubation period the cells were disrupted by the addition of 50 μL of lysis buffer from a cAMP EIA kit (Amersham). Complete rupture of the cells was obtained by pipetting the cells multiple times. cAMP levels in the cell lysates were measured after appropriate dilution using the EIA kit (Amersham) method. Data analysis and EC50 values were determined by using nonlinear regression analysis with Prism Graph-Pad software. […] FIG. 1 illustrates typical results, showing the stimulation of cAMP using the compound of Example 11 in HEK-293/MC4-R cells with comparison to NDP-α-MSH.
Assay for Neutral Antagonist. Compounds with a high affinity for binding to MC4-R membranes but with less potency in terms of cAMP accumulation (EC50>1000 nM) and low response ratio (<0.1) were analyzed for their ability to antagonize the stimulatory effect of the agonist NDP-α-MSH. These studies were carried out in HEK-293 cells expressing MC4-R. Cells were incubated with the compounds in the presence of the agonist NDP-α-MSH and the extent of antagonism was measured by the decrease in intracellular cAMP concentrations. Screening the compounds for antagonist activity was performed at a single concentration of NDP-α-MSH (1.0 nM) over a compound concentration range of 0.5-5000 nM.
Experimental details were similar to the analysis for agonistic activity described above. Briefly, cells were pre-incubated for 30 minutes with the test compounds at concentrations between 0.5 nM and 5000 nM. The cells were then stimulated with NDP-α-MSH at a concentration of 1 nM for 1 hour. For Schild's analysis, the interactions were studied using at least 3 concentrations of the compounds, separated by a log unit, over a full range of the agonist (0.005-5000 nM). cAMP levels were measured in the cell lysates after appropriate dilution. Nonlinear regression analysis with Prism Graph-Pad software was used for Schild analysis and to obtain EC50 values. pA2 values were derived from the Schild plot of the data.

MC1-R [6] = system: T5, MC1-R; experiment: cAMP functional assay, B-16 mouse melanoma cells expressing MC1-R; format: cell-based; conditions: cAMP assay at 1 μM
T5 construct: from B-16 mouse melanoma cells (containing MC1-R); endogenous in cells; host or cells: B-16 mouse melanoma cells
Method: as §3, §4

hMC5-R [7] = system: T4, hMC5-R; experiment: cAMP functional assay, HEK-293 cells expressing hMC5-R; format: cell-based, human; conditions: cAMP assay at 1 μM
Method: as §3, §4

[8] = MC4-R membranes, Table 1, read-out: Ki (nM) I125-NPD-α-MSH
[9] = read-out: Ki (nM) (NDP-α-MSH) MC4-R
[10] = MC4-R membranes, Table 1, read-out: Ki (nM) I125-AgRP

| SMILES | Ki (MC1-R [1]) [nM] | Inhibition at 1 μM (NDP-α-MSH) MC1-R (MC1-R [1]) [%] | Ki (hMC3-R) [nM] | Inhibition at 1 μM (NDP-α-MSH) MC4-R (hMC4-R [2]) [%] | Ki (hMC4-R [2]; [8]) [nM] | attenuation of binding of α-MSH and AgRP to MC4-R (hMC4-R [2]; both ligands (NDP-α-MSH and AgRP), summary) | Ki (hMC4-R [2]; [9]) [nM] | Ki (hMC5-R [3]) [nM] | Ki (hMC4-R [4]; [10]) [nM] | Ki (hMC4-R [4]; read-out: Ki (nM) (AgRP) MC4-R) | functional status (pAg, Ag, Antag, Inactive) (hMC4-R [5]; MC4-R, Table 1) | pEC50 (hMC4-R [5]; MC4-R, Table 1, read-out: EC50) | intrinsic activity at MC4-R (hMC4-R [5]) | EC50 (hMC4-R [5]; cAMP assay, read-out: EC50 (nM) at MC4-R) [nM] | functional status at MC1-R (MC1-R [6]) | functional status at MC5-R (hMC5-R [7]) | Inhibition at 1 μM (NDP-α-MSH) MC3-R (hMC3-R; 1 μM compound) [%] | Inhibition at 1 μM (NDP-α-MSH) MC5-R (hMC5-R [3]; 1 μM compound) [%] | Inhibition at 1 μM (AgRP) MC4-R (hMC4-R [4]; 1 μM compound) [%] | functional status at MC4-R (hMC4-R [5]; cAMP assay, mostly at 1 μM) |
| --- | --- | --- | --- | --- | --- | --- | --- | --- | --- | --- | --- | --- | --- | --- | --- | --- | --- | --- | --- | --- |
| N=C(N)NCCC[C@H]1C(=O)N(CCc2c[nH]c3ccccc23)CCN1C(=O)[C@H](N)Cc1ccc(Cl)cc1Cl [Example 2, N-(3-{(S)-1-[(R)-2-Amino-3-(2,4-dichloro-phenyl)-propionyl]-4-[2-(1H-indol-3-yl)-ethyl]-3-oxo-piperazin-2-yl}-propyl)-guanidine] | 1410 | 7 | 533 | 96 | 15 | attenuate the binding of both α-MSH and AgRP to MC4-R | 15 | 1580 | 38 | 38 | pAg (“pAg” means partial agonist) | 6.22 | 0.3 | 604 | partial agonist (intrinsic activity between 0.1 (10%) and 0.7 (70%) is classified as a partial agonist) | partial agonist (intrinsic activity between 0.1 (10%) and 0.7 (70%) is classified as a partial agonist) | – | – | – | – |
| CC(C)C[C@H]1CN(C(=O)[C@H](N)Cc2ccc(Cl)cc2Cl)[C@@H](CCCNC(=N)N)CN1CCc1ccc2ccccc2c1 [Example 3, N-{3-[1-[2(R)-Amino-3-(2,4-dichloro-phenyl)-propionyl]-5(S)-isobutyl-4-(2-naphthalen-2-yl-ethyl)-piperazin-2(S)-yl]-propyl}-guanidine] | 5900 | 4 | 495 | 95 | 48 | – | 48 | 698 | 39 | 39 | Inactive | – | no intrinsic activity | – | partial agonist (intrinsic activity between 0.1 (10%) and 0.7 (70%) is classified as a partial agonist) | partial agonist (intrinsic activity between 0.1 (10%) and 0.7 (70%) is classified as a partial agonist) | 16 | 28 | 91 | inactive |
